Values of other authors, collected in patent US20260258363A1, “THERAPY” (PLASTICELL LTD, priority 2023, published 2026).

System: bone marrow derived CD34+ cells
Conditions: pre-treatment of cells in vitro

SMILES: NCCCNCCS [WR1065]
- enhancement of formation of CFU-GEMM and BFU-E colonies: ≤ 38 fold
